Entries after “also recorded” stand apart in the source; their conditions may differ. Blank lines part the entries; values can stand above or below the substance they belong to. No end group written: not given here.
How the values were obtained:
MC-1R [1] = biological target: T1, MC-1R (Mus musculus, UniProt Q01727); assay: Inhibition of α-MSH- or ACTH(1–8)-induced melanin production in B16 cells by MC-1R antagonist; format: cell-based; conditions: dose-dependent effect of antagonist, n = 4
T1 construct: Mouse melanoma cell line B16[43], which express MC-1R and produce melanin; host or cells: B16 mouse melanoma cells (adherent, whole cells)
Description: Figure 3 ACTH(1–8)-mediated melanin production via the MC-1R. (A). The Radioreceptor assay of ACTH(1–8) (open circle) and α-MSH (closed circle) in mouse melanoma B16 cells. B16 mouse melanoma cells were incubated with [^125I]-α-MSH and 10^−7–10^−11 M ACTH(1–8) or 10^−6–10^−11 M α-MSH. The receptor binding of [^125I]-α-MSH was expressed as 100% in the absence of α-MSH and 0% in the presence of 1 μM α-MSH and calculated as relative activity. (B). ACTH(1–8)- and α-MSH-mediated melanin production. B16 mouse melanoma cells were incubated with 10^−7–10^−11 M ACTH(1–8) (open circle) or 10^−6–10^−11 M α-MSH (closed circle). Melanin levels are expressed as 100% and 0% in the presence of 1 μM α-MSH and absence of α-MSH, respectively, and calculated as the relative activity. C. […] Melanin levels are expressed as 100% and 0% in the presence of 1 μM α-MSH and absence of α-MSH, respectively, and calculated as the relative activity.
Melanin production activity was performed as follows: B16 cells and normal human melanocytes (TOYOBO. Osaka, Japan) were seeded at the density of 1 × 10[5] cells in 24-well plates and allowed to attach overnight. […] Cells were solubilized in 1 M NaOH at 60°C, and melanin content was measured spectrophotometrically at 475 nm. Melanin levels were expressed as 100% and 0% in the presence of 1 μM α-MSH and absence of α-MSH, respectively. […]

lizard skin = test system: lizard skin; design: method as in PMID 2537778; conditions: cited from earlier work
melanin production = conditions: bioassay studies on melanin production; cited from earlier work
frog skin = test system: frog skin; design: method as in PMID 2822931; conditions: cited from earlier work
mouse melanoma B16 cells = conditions: 72 h
Description: (B). […] C. […] Each point and line represents the mean ± SEM (n = 4).
Melanin production activity was performed as follows: B16 cells and normal human melanocytes (TOYOBO. Osaka, Japan) were seeded at the density of 1 × 10[5] cells in 24-well plates and allowed to attach overnight. […] Cells were solubilized in 1 M NaOH at 60°C, and melanin content was measured spectrophotometrically at 475 nm.

MC-1R [2] = test system: MC-1R; design: method as in 2 sources, ref 23 = [23]; PMID 17317724; doi:10.1096/fj.06-7398com; Rousseau K. et al. Proopiomelanocortin (POMC), the ACTH/melanocortin precursor, is secreted by human epidermal keratinocytes and melanocytes and stimulates melanogenesis . FASEB J 21 , 1844 – 1856 ( 2 ||| ref 34 = [34]; PMID 1556905; doi:10.1016/0024-3205(92)90347-r; Slominski. A. et al. Melanotropic activity of gamma MSH peptides in melanoma cells . Life Sci , 50 , 1103 – 1108 ( 1992 ). 1556905 10.1016/0024-3205(92)90347-r; conditions: cited from earlier work
Excerpt: To clarify the mechanism of melanin production after UV-irradiation, we assessed the expression of POMC and POMC-derived peptides after UV-irradiation to the skin of the murine auricle.

MC-1R [3] = conditions: cited from earlier work
Excerpt: Melanin plays an important role in protecting skin after UV-irradiation. α-MSH is a major catalyst for melanogenesis in the skin following UV-irradiation. α-MSH-LI and ACTH-LI may be present in culture media of normal keratinocytes, fibroblasts, melanocytes, and their cell extracts. Although POMC and POMC-derived peptides such as ACTH and α-MSH are released from the intermedia of the pituitary, it is unlikely that pituitary secretions contribute to local pigmentation. In the present report, POMC-related peptides were detected in the UV-irradiated auricle ... || Structure-activity analyses of α-MSH have reported information on the essential sequence required for MC-1R binding and melanin production. […] However, Ac-His-Phe-Arg-Trp-NH2 had 400,000-fold less activity (EC50 20 μM) than α-MSH in a frog skin bioassay[31] and approximately 7,000-fold less activity (EC50 1 μM) in a lizard skin bioassay. Furthermore, the N-terminal region of α-MSH is ...

T1 sequence (Q01727 whole entry): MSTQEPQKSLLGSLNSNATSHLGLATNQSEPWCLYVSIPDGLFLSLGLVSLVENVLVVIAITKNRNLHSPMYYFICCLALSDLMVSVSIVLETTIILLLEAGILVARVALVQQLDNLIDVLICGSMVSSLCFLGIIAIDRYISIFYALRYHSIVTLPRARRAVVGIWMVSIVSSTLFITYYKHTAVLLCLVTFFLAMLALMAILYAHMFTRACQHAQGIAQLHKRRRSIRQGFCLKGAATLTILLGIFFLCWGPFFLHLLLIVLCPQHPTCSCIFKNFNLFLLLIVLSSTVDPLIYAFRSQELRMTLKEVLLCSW

Substance: ASP(87–132)-NH2: a MC-1R antagonist (TPLSAPCVATRNSCKPPAPACCDPCASCQCRFFRSACSCRVLSLNC-NH2; cysteine pairing not given here; UniProt P42127 87-132, looked up, fragment)
effect on ACTH(1–8)-mediated melanin production (MC-1R [1]; 10^−7 M ACTH(1–8)): competitively attenuated; also recorded: decreased both ACTH(1–8)- and α-MSH-mediated melanogenesis
effect on α-MSH-mediated melanin production (MC-1R [1]; 10^−8 M α-MSH): decreased both ACTH(1–8)- and α-MSH-mediated melanogenesis

Substance: Ac-His-Phe-Arg-Trp-NH2
EC50 (lizard skin; lizard skin, read-out: EC50, lizard skin bioassay): 1000 nM
fold less activity than α-MSH, lizard skin bioassay (lizard skin; relative to α-MSH): approximately 7,000 fold
melanotropic response (melanin production): minimal synthetic fragment capable of eliciting a melanotropic response
EC50 (frog skin; frog skin, read-out: EC50, frog skin bioassay): 20000 nM
fold less activity than α-MSH, frog skin bioassay (frog skin; relative to α-MSH): 400,000 fold

EC50 (mouse melanoma B16 cells): 80 nM
Substance: SYSMEHFR [ACTH(1–8)]

Substance: adrenocorticotropic hormone (SYSMEHFRWGKPVGKKRRPVKVYPNGAEDESAEAFPLEF; Corticotropin; UniProt P01189 138-176, looked up) [ACTH, intermediate form of α-MSH, produced from POMC; 4.5 kDa]
agonism at MC-1R (MC-1R [2]; MC1-R): known agonists

Substance: γ-MSH
melanin production (MC-1R [3]): increases melanin production
antagonism against MC-1R (MC-1R [2]): competitive antagonist against MC-1R
potency when binding to MC-1R (MC-1R [2]; compared with ACTH(1–8)): potent when binding to MC-1R, but at low potency levels similar to ACTH(1–8)
